Source: the NIST ThermoML archive (doi:10.1016/j.fluid.2010.03.042)

Assay: xn = mol fraction of the nth substance listed
Details: Liquid, Vibrating tube method

CCCCO [butan-1-ol] + O=C=O
Details	mass density [kg/m3]
313.22 K, x2 = 0.1294	806.8
313.22 K, x2 = 0.2204	816.8
313.22 K, x2 = 0.2354	818.6
313.22 K, x2 = 0.3409	823.7
313.22 K, x2 = 0.4311	826.1
313.22 K, x2 = 0.5847	827.7
313.22 K, x2 = 0.8543	797
363.17 K, x2 = 0.1186	711.3
363.17 K, x2 = 0.1985	762
363.17 K, x2 = 0.2821	764.7
363.17 K, x2 = 0.3623	765.5
363.17 K, x2 = 0.4604	765.5
363.17 K, x2 = 0.5637	760.6
363.17 K, x2 = 0.6867	750.9
363.17 K, x2 = 0.7105	745.8
363.17 K, x2 = 0.7597	726.6

CCC(C)O (centres undefined) [butan-2-ol] + O=C=O
Details	mass density [kg/m3]
313.21 K, x2 = 0.166	795.6
313.21 K, x2 = 0.2247	807.4
313.21 K, x2 = 0.3339	813.7
313.21 K, x2 = 0.435	816.8
313.21 K, x2 = 0.5177	818.9
313.21 K, x2 = 0.6282	818.5
313.21 K, x2 = 0.7453	817.2
313.21 K, x2 = 0.7457	817.5
313.21 K, x2 = 0.8604	815.4
313.21 K, x2 = 0.9197	813.8
333.12 K, x2 = 0.137	771.6
333.12 K, x2 = 0.2174	782.3
333.12 K, x2 = 0.3029	786.1
333.12 K, x2 = 0.3944	790.2
333.12 K, x2 = 0.4533	791.8
333.12 K, x2 = 0.5642	790.7
333.12 K, x2 = 0.6485	787.2
333.12 K, x2 = 0.7937	775.5
333.12 K, x2 = 0.8376	758.6
363.06 K, x2 = 0.1273	743.6
363.06 K, x2 = 0.1978	746.7
363.06 K, x2 = 0.2588	747.7
363.06 K, x2 = 0.2793	748.3
363.06 K, x2 = 0.3584	743.8
363.06 K, x2 = 0.4344	738.3
363.06 K, x2 = 0.5565	709.3
363.06 K, x2 = 0.6978	647.2
363.06 K, x2 = 0.7871	611.7
